Experimental data: patent US9221765B2, “Inhibition and dispersion of bacterial biofilms with benzimidazole derivatives” (North Carolina State University, priority 2009, dated 2015)
Where a name gives a salt, the structure may show the parent alone. Read-outs that look alike come from different tables or passages of the source.

Key:
[1] = tested on: vancomycin-resistant Enterococcus faecium (VRE); test: Dispersion of preformed VRE (E. faecium) biofilm; format: cell-based; conditions: concentration that disperses 50% of a pre-formed biofilm
Experimental: (§1) A dose-response study was then initiated in which both the IC50 and EC50 value of each compound towards the bacterial strains were determined (Table 1). Here, IC50 is defined as the concentration of compound that inhibits 50% biofilm development while EC50 is defined as the concentration of compound that disperses 50% of a pre-formed biofilm.
(§2) Procedure to Determine the Dispersal Effect of Test Compounds on E. faecium, MRSA and S. epidermidis Preformed Biofilms:
(§3) Dispersion assays were performed by taking an overnight culture of bacterial strain and subculturing it at an OD600 of 0.01 into the necessary media (brain heart infusion for E. faecium, tryptic soy broth with a 0.5% glucose supplement (TSBG) for MRSA and tryptic soy broth with a 0.5% glucose supplement and a 3.0% NaCl supplement (TGN) for S. epidermidis. The resulting bacterial suspension was aliquoted (100 μL) into the wells of a 96-well PVC microtiter plate. Plates were then wrapped in GLAD Press n′ Seal® followed by an incubation under stationary conditions at ambient temperature to establish the biofilms. After 24 h, the media was discarded from the wells and the plates were washed thoroughly with water. Stock solutions of predetermined concentrations of the test compound were then made in the necessary media. These stock solutions were aliquoted (100 μL) into the wells of the 96-well PVC microtiter plate with the established biofilms. Media alone was added to a subset of the wells to serve as a control. Sample Plates were then incubated for 24 h at 37° C. After incubation, the media was discarded from the wells and the plates were washed thoroughly with water. Plates were then stained with 100 μL of 0.1% solution of crystal violet (CV) and then incubated at ambient temperature for 30 min. Plates were washed with water again and the remaining stain was solubilized with 200 μL of 95% ethanol. A sample of 125 μL of solubilized CV stain from each well was transferred to the corresponding wells of a polystyrene microtiter dish. Biofilm dispersion was quantitated by measuring the OD540 of each well in which a negative control lane wherein no biofilm was formed served as a background and was subtracted out.

S. epidermidis [2] = test: Inhibition of S. epidermidis biofilm formation (crystal violet); format: cell-based, Staphylococcus epidermidis; conditions: for IC50: concentration that inhibits 50% biofilm development; for ability to inhibit biofilm formation: 100 μM (highest concentration tested)
Experimental: as §1
(§4) Procedure to Determine the Inhibitory Effect of Test Compounds on E. faecium, MRSA, S. epidermidis, PAO1 and MDRAB Biofilm Formation:
(§5) Inhibition assays were performed by taking an overnight culture of bacterial strain and subculturing it at an OD600 of 0.01 into the necessary media (brain heart infusion for E. faecium, tryptic soy broth with a 0.5% glucose supplement (TSBG) for MRSA, Luria-Bertani (LB) media for MDRAB, Luria-Bertani media without NaCl (LBNS) for PAO1 and tryptic soy broth with a 0.5% glucose supplement and a 3.0% NaCl supplement (TGN) for S. epidermidis. Stock solutions of predetermined concentrations of the test compound were then made in the necessary media. These stock solutions were aliquoted (100 μL) into the wells of the 96-well PVC microtiter plate. Sample plates were then wrapped in GLAD Press n′ Seal® followed by an incubation under stationary conditions for 24 h at 37° C. After incubation, the media was discarded from the wells and the plates were washed thoroughly with water. Plates were then stained with 100 μL of 0.1% solution of crystal violet (CV) and then incubated at ambient temperature for 30 min. Plates were washed with water again and the remaining stain was solubilized with 200 μL of 95% ethanol. A sample of 125 μL of solubilized CV stain from each well was transferred to the corresponding wells of a polystyrene microtiter dish. Biofilm inhibition was quantitated by measuring the OD540 of each well in which a negative control lane wherein no biofilm was formed served as a background and was subtracted out.
as §5, with “2-(2-amino-1H-benzo[d]imidazol-6-ylcarbamoyl)-3,4,5,6-tetrachlorobenzoic acid hydrochloride” for “test compound”, “media. Samples were then doped with 10.0 μM FeSO4 with samples with no test compound to examine effects of 10.0 μM FeSO4 on biofilm formation.” for “media.”

[3] = tested on: vancomycin-resistant Enterococcus faecium (VRE); test: Inhibition of VRE (E. faecium) biofilm formation (crystal violet); format: cell-based; conditions: for ability to inhibit biofilm formation: 100 μM (highest concentration tested)
Experimental: as §1, §4, §5
as §5, with “2-(2-amino-1H-benzo[d]imidazol-6-ylcarbamoyl)-3,4,5,6-tetrachlorobenzoic acid hydrochloride” for “test compound”, “media. Samples were then doped with 10.0 μM FeSO4 with samples with no test compound to examine effects of 10.0 μM FeSO4 on biofilm formation.” for “media.”

MRSA [4] = test: Inhibition of MRSA biofilm formation (crystal violet); format: cell-based, Staphylococcus aureus; conditions: for IC50: concentration that inhibits 50% biofilm development; for ability to inhibit biofilm formation: 100 μM (highest concentration tested)
Experimental: as §1, §4, §5
as §5, with “2-(2-amino-1H-benzo[d]imidazol-6-ylcarbamoyl)-3,4,5,6-tetrachlorobenzoic acid hydrochloride” for “test compound”, “media. Samples were then doped with 10.0 μM FeSO4 with samples with no test compound to examine effects of 10.0 μM FeSO4 on biofilm formation.” for “media.”

MRSA [5] = test: Dispersion of preformed MRSA biofilm; format: cell-based, Staphylococcus aureus; conditions: concentration that disperses 50% of a pre-formed biofilm
Experimental: as §1, §2, §3

S. epidermidis [6] = test: Dispersion of preformed S. epidermidis biofilm; format: cell-based, Staphylococcus epidermidis; conditions: concentration that disperses 50% of a pre-formed biofilm
Experimental: as §1, §2, §3

[7] = Divalent zinc binding via 1H NMR spectroscopy; conditions: 0, 0.5, 1.0 equivalents ZnCl2; DMSO
Experimental: Given this Zn(II)-dependence, the ability of 3 to bind zinc directly was determined to ascertain if the mechanism was potentially occurring via a Zn(II)-binding mechanism. To answer this question, an ^1H NMR binding experiment was performed in which the chemical shifts of 3 were measured in the presence of 0 equivalents, 0.5 equivalents, and 1.0 equivalents ZnCl2. […] As a control, the same experiment was performed with FeSO4.
Procedure to Determine the Divalent Zinc Binding Effects of Test Compounds via ^1H NMR Spectroscopy:
^1H NMR Spectra were obtained of the test compounds in DMSO on a 400 MHz NMR in the absence and in the presence of one equivalent of ZnCl2. 2-(2-amino-1H-benzo[d]imidazol-5-ylcarbamoyl)-3,4,5,6-tetrachlorobenzoic acid hydrochloride was tested at a 228 mM. 2,3,4,5-tetrachloro-6-(phenylcarbamoyl)benzoic acid was tested at 275 mM. 1H-benzo[d]imidazol-2-amine hydrochloride was tested at 649 mM.

MRSA [8] = test: Inhibition of MRSA biofilm formation (crystal violet); format: cell-based, Staphylococcus aureus; conditions: FeSO4 alone, no test compound
[9] = tested on: E. faecium, MRSA and S. epidermidis; test: Mitigating effects of zinc on biofilm formation inhibition; format: cell-based; conditions: 200.0 μM ZnCl2 alone, no test compound
Source text: Next, Zn(II) homeostasis was examined. Zn(II) has been implicated in the pathogenesis of Gram-positive bacterial infections and may be an important regulator of biofilm formation (Conrady, D. G.; Brescia, C. C.; Horii, K.; Weiss, A. A.; Hassett, D. J.; Herr, A. B. Proceedings of the National Academy of Sciences of the United States of America 2008, 105, 19456-19461).
Procedure to Determine the Mitigating Effects of Zinc on E. faecium, MRSA and S. epidermidis Biofilm Formation Inhibition Induced by 2-(2-Amino-1H-Benzo[d]Imidazol-6-Ylcarbamoyl)-3,4,5,6-Tetrachlorobenzoic Acid Hydrochloride:
as §5, with “50.0 μM 2-(2-amino-1H-benzo[d]imidazol-6-ylcarbamoyl)-3,4,5,6-tetrachlorobenzoic acid hydrochloride” for “predetermined concentrations of the test compound”, “media. Samples were then doped with 25.0, 50.0, 75.0, 100.0, 150.0 and 200.0 μM ZnCl2 with controls in which no test compound was added to examine effects of 200.0 μM ZnCl2 on biofilm formation.” for “media.”

[10] = VRE, concentration that inhibits 50% biofilm development, read-out: IC50

SMILES	EC50 ([1]; read-out: EC50 (converted)) [µM]	IC50 (S. epidermidis [2]) [µM]	IC50 [3, 10] [µM]	IC50 (MRSA [4]; read-out: IC50) [µM]	EC50 (MRSA [5]; read-out: EC50 (converted)) [µM]	EC50 (S. epidermidis [6]) [µM]	other results
Nc1nc2ccc(NC(=O)[C@H]3[C@@H](C(=O)O)C4(Cl)C(Cl)=C(Cl)C3(Cl)C4(Cl)Cl)cc2[nH]1 (relative stereo) [Compound 4]	280	1.9 ± 0.4	210 ± 35	1.5 ± 0.4	6.6	19	
Nc1nc2ccc(NC(=O)[C@@H]3C4C=CC(C4)[C@@H]3C(=O)O)cc2[nH]1 (stereo partly drawn) [Compound 5, (2S,3R)-3-(2-amino-1H-benzo[d]imidazol-6-ylcarbamoyl)bicyclo[2.2.1]hept-5-ene-2-carboxylic acid hydrochloride]							EC50 [1]: 107 µM; IC50 (S. epidermidis [2]; Staphylococcus epidermidis): 4.1 ± 2 µM; IC50 [3]: 63 ± 9.1 µM; IC50 (MRSA [4]; Staphylococcus aureus): 16 ± 2.9 µM; EC50 (MRSA [5]; Staphylococcus aureus): 63 µM; EC50 (S. epidermidis [6]; Staphylococcus epidermidis): 45 µM
CC(C)(CC(=O)O)CC(=O)Nc1ccc2nc(N)[nH]c2c1 [Compound 7]	94	240 ± 20	0.9 ± 0.3	69 ± 2.7	205	260	
Nc1nc2ccc(NC(=O)c3cccc4cccc(C(=O)O)c34)cc2[nH]1 [Compound 9, 8-(2-amino-1H-benzo[d]imidazol-6-ylcarbamoyl)-1-naphthoic acid hydrochloride]							EC50 [1]: 6.3 µM; IC50 (S. epidermidis [2]; Staphylococcus epidermidis): 6.2 ± 1.2 µM; IC50 [3]: 0.9 ± 0.4 µM; IC50 (MRSA [4]; Staphylococcus aureus): > 300 µM; EC50 (MRSA [5]; Staphylococcus aureus): > 300 µM; EC50 (S. epidermidis [6]; Staphylococcus epidermidis): 30 µM
Nc1nc2ccc(N3C(=O)CC4(CCC4)CC3=O)cc2[nH]1 [Compound 14]	230	170 ± 14	1.9 ± 0.5	42 ± 2.4	48	180	
Nc1nc2ccc(N3C(=O)c4cccc5cccc(c45)C3=O)cc2[nH]1 [Compound 15]	110	24 ± 6.3	69 ± 10	> 300	> 300	81	
Nc1nc2ccc(N3C(=O)[C@@H]4[C@H](C3=O)C3(Cl)C(Cl)=C(Cl)C4(Cl)C3(Cl)Cl)cc2[nH]1 [Compound 16]	31	1.5 ± 0.5	7.4 ± 1.7	5.7 ± 0.5	9.5	33	
Nc1nc2ccccc2[nH]1 [Compound 17, reference compound]							ability to inhibit biofilm formation (S. epidermidis [2]): Neither compound was able to inhibit; ability to inhibit biofilm formation ([3]; VRE): Neither compound was able to inhibit; ability to inhibit biofilm formation (MRSA [4]): Neither compound was able to inhibit; zinc binding, change of 1H NMR signals [7]: no change
O=C(O)c1c(Cl)c(Cl)c(Cl)c(Cl)c1C(=O)Nc1ccccc1 [Compound 18, reference compound]							ability to inhibit biofilm formation (S. epidermidis [2]): Neither compound was able to inhibit; ability to inhibit biofilm formation ([3]; VRE): Neither compound was able to inhibit; ability to inhibit biofilm formation (MRSA [4]): Neither compound was able to inhibit; zinc binding, change of 1H NMR signals [7]: no change
O=S(=O)([O-])[O-].[Fe+2] [FeSO4, reference compound]							increase of biofilm formation (biofilm mass) (S. epidermidis [2]; FeSO4 alone, no test compound): 1.25 times; increase of biofilm formation (biofilm mass) ([3]; E. faecium, FeSO4 alone, no test compound): 1.37 times; increase of biofilm formation (biofilm mass) (MRSA [8]): 1.28 times
[Cl-].[Cl-].[Zn+2] [ZnCl2, reference compound]							effect on biofilm formation [9]: no effect on biofilm formation
